From EP0979818A1, “BENZOIC ACID COMPOUNDS AND MEDICINAL USE THEREOF” (YOSHITOMI PHARMACEUTICAL INDUSTRIES, LTD., priority 1997, dated 1998)
Like-named read-outs stand apart in the source and are kept apart here.

Tests used:
[1] = molecular target: isolated guinea pig ascending colon (Cavia porcellus, UniProt O70528); assay: contraction of the isolated guinea pig ascending colon; assay type: cell-based
Procedure: Male Hartley guinea pig was killed by a blow, ascending colon was taken from it and longitudinal muscle was separated. About 3 cm longitudinal muscle segment was suspended in 10 ml of a Tyrode solution with the load of 1 g. Tyrode solution contained methysergide (1 µM) and granisetron (1 µM) to inhibit responses mediated by 5-HT1, 5-HT2 and 5-HT3 receptors. Tyrode solution was maintained at 37°C and ventilated with a mixed gas of O2 (95%) and CO2 (5%). The contraction was isotonically measured via isotonic transducer. After an equilibrium period of about 30 minutes, the contraction by methacholine (30 µM) was measured two times at 15 minute intervals. Twenty minutes later, Y-36912 was added into the bath and the contraction was measured in the presence of a solvent or 1-methyl-1H-indole-3-carboxylic acid · 1-(2-methylsulfonylaminoethyl)-pyperidin-4-ylmethyl ester (hereinafter to be referred to as GR113808, 10nM), which is 5-HT4 receptor antagonist. The time of pretreatment with the solvent or GR113808 was 10 minutes. To avoid tachyphylaxis, the contraction induced by one concentration per preparation was measured. The contraction in the presence of a solvent or GR113803 was measured using a preparation from the same animal. The contraction effect of Y-36912 was measured as a percentage of responses to the second contraction by methacholine. […]

5-HT4 receptor = molecular target: T1, 5-HT4 receptor (Cavia porcellus, UniProt O70528); assay: 5-HT4 receptor binding test; settings: guinea pig striatum crude synapse membrane, [3H]GR113808 0.1 nM, 37°C; read-out: Affinity for receptor (Ki value, nM) 5-HT4
T1 construct: Crude synapse membrane sample was prepared from guinea pig striatum; from tissue; host or cells: guinea pig striatum, crude synaptic membranes
Procedure: According to the method of C.J. Grossman et al. [British Journal of Pharmacology, vol. 109, pp. 618-624 (1993)1, a 5-HT4 receptor binding test was run using, as a tracer ligand, 1-methyl-1H-indole-3-carboxylic acid · 1-(2-methylsulfonylaminoethyl)-piperidin-4-ylmethyl ester substituted by tritium (hereinafter to be referred to as [^3H]GR113808). Crude synapse membrane sample was prepared from guinea pig striatum, suspended in 50 mM HEPES buffer (pH 7.4) and used for testing. Y-36912 having several different concentrations and [^3H]GR113808 (final concentration 0.1 nM) were added to this suspension and allowed to react at 37°C. Thirty minutes later, the reaction mixture was filtered by suction with cell harvester. The filter was washed with 50 mM HEPES buffer, and the radioactivity on the filter was counted by liquid scintillation counter. The non-specific binding was determined in the presence of 1µM GR113808. The concentration of Y-36912 necessary for 50% inhibition (IC50) was determined from graph and convened to binding inhibition constant (Ki value).

dogs = assay: promotion of postprandial gastrointestinal motility in dogs without anesthesia; assay type: in vivo; settings: for Difference of motility index (g·min) Colon / Difference of motility index (g·min) Stomach: Mean ± S.E.; for minimal effective dose: Canis lupus familiaris, iv
Procedure: According to the method of Ito et al. [Journal of Smooth Muscle Research, vol. 13, pp. 33-43 (1976)], male and female adult mongrel dogs were subjected to laparotomy under pentobarbital anesthesia, and force transducer was sutured to the serous membrane of various sites of gastrointestinal tract in the direction of circular muscle. After about two weeks' recovery period, postprandial gastrointestinal motility was measured in vigilance. The results are shown in Table 3 as the difference in motility index (g·min) between before and after administration of Y-36912. Y-36912 was administered intravenously.

5-HT3 receptor = molecular target: T2, 5-HT3 receptor (Rattus norvegicus, UniProt P35563); assay: 5-HT3 receptor binding test; settings: rat cerebral cortex crude synapse membrane, [3H]granisetron 1.0 nM, 25°C; value marked * is IC50, not Ki; read-out: Affinity for receptor 5-HT3 (* shows IC50)
T2 construct: Crude synapse membrane sample was prepared from rat cerebral cortex; from tissue; host or cells: rat cerebral cortex, crude synaptic membranes
T2 sequence (P35563 24-483): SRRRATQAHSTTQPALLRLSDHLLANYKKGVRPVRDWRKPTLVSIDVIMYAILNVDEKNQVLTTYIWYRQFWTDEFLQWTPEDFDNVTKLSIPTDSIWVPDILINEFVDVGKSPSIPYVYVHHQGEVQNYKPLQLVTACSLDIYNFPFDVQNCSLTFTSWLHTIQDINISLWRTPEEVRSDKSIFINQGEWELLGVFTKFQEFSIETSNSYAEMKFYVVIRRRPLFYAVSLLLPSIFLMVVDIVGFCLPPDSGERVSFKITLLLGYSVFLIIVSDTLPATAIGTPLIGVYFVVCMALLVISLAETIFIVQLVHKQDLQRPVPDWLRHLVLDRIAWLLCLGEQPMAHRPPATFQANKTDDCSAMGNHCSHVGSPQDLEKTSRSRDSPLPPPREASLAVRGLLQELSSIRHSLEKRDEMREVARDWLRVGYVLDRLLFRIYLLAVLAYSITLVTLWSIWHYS
Procedure: According to the method of Nelson and Thomas [Biochemical Pharmacology, vol. 38, pp. 1693-1695 (1989)], a 5-HT3 receptor binding test was run using, as a tracer ligand, endo-1-methyl-N-(9-methyl-9-azabicyclo[3.3.1]non-3-yl)-1H-indazole-3-carboxamide substituted by tritium (hereinafter to be referred to as [^3H]granisetron). Crude synapse membrane sample was prepared from rat cerebral cortex, suspended in 50 mM HEPES buffer (pH 7.4) and used for testing. Y-36912 having several different concentrations and [^3H]granisetron (final concentration 1.0 nM) were added to this suspension and allowed to react at 25°C. Thirty minutes later, the reaction mixture was filtered by suction with cell harvester. The filter was washed with 50 mM Tris buffer (pH 7.4), and the radioactivity on the filter was counted using liquid scintillation counter or β-plate. The non-specific binding was determined in the presence of 1 µM tropisetron. The concentration of Y-36912 necessary for 50% inhibition (IC50) was determined from graph and converted to binding inhibition constant (Ki value).

rats = assay: promotion of gastric emptying in rats; assay type: in vivo; settings: for Number of pellets (remaining in stomach): female Wistar rats, 1 hour after pellets, Mean ± S.E.; for Promotion (%) of gastric emptying: versus vehicle
Description: Barium pellets (ca. 1 mm diameter) coated with polystyrene was intragastrically administered to female Wistar rats. One hour later, stomach was removed, and the remaining pellets were counted. Y-36912 was orally administered one hour before administration of the pellets.

mice = assay: stimulation of defecation in mice; assay type: in vivo; settings: for Number (of feces) / Wet weight (of feces): 2 hours, Mean ± S.E.; for Promotion(%) of number of feces / Promotion(%) of wet weight of feces: versus vehicle
Procedure: Male ICR mice were subcutaneously administered with Y-36912 after adaptation to experimental surroundings for thirty minutes. The number and wet weight of feces excreted in 2 hours from immediately after administration were measured.

[2] = evaluation of bioavailability in rats; assay type: in vivo; settings: rat, po; female SD rats, 3 mg/kg i.v. and 30 mg/kg p.o., from plasma AUC
Procedure: Female SD rats (4 per group) were administered with 3 mg/kg (i.v.) and 30 mg/kg (p.o.) of Y-36912. The blood was taken with the passage of time, and the concentration of the drug in plasma was measured with high performance liquid chromatography. […] In the formula, AUC means area under the plasma concentration-time curve. (AUC by oral administration)/(AUC by intravenous administration)X(Dose of intravenous administration)/(Dose of oral administration)X 100(%) [formula]

SD rats [3] = assay: toxicity testing, single oral dose in rats; assay type: in vivo; settings: four female SD rats, 750 mg/kg
Procedure: There was no death when four female SD rats were administered orally with Y-36912 at a dose of 750 mg/kg.

[4] = measurement of absorption by small intestine in rat; assay type: in vivo; settings: small intestine loop, 5 mg/kg, male SD rats, intestinal loop, 5 mg/10 ml in 5% glucose, 10 ml/kg, read-out: absorption (absorption ratio by small intestine loop)
Procedure: Male SD rats (3 per group) fasted overnight were subjected to laparotomy under ether anesthesia, and the upper part of small intestine was ligated to form a loop (15-20 cm in length). The drug was dissolved in 5% glucose to the drug concentration of 5 mg/10 ml, and 10 ml/kg thereof was injected into the loop. At 2 hours from the drug injection, the loop was removed, washed with 100 ml of 0.1 N hydrochloric acid-methanol (3:7), and the drug concentration was determined by high performance liquid chromatography. The absorption ratio was calculated according to the following formula. The absorption of Y-36912 was 60.5±13.7 % (Injected amount of drug (mg) - drug concentration in loop (mg/ml) x 100 (ml))/(Injected amount of drug (mg))x 100(%) [formula]

SD rats [5] = assay: toxicity testing, repeated administration for 10 days in rats; assay type: in vivo; settings: female and male SD rats, repeated 30 mg/kg for 10 days
guinea pig = assay: promotion of transit in large intestine in guinea pig; assay type: in vivo; settings: guinea pigs; for Ratio of transit in large intestine (%): Evans blue, 1 hour, Mean ± S.E.; for Promotion (%) of transit in large intestine: versus vehicle
Procedure: Male Hartley guinea pigs were subjected to laparotomy under ether anesthesia, and a silicone tube was inserted into the beginning of ascending colon and fixed there. The other end was passed under the skin to be exposed from the back and sutured. At day 5 postoperation, Y-36912 was administered orally and Evans blue solution was injected into the colon through the silicon tube. One hour later, the large intestine was removed, and the entire length of the large intestine and the length of the transit of the Evans blue solution were measured. Evans blue transit ratio relative to the entire length of the large intestine (100 %) was calculated.

isolated guinea pig ascending colon, sequence (O70528 whole entry): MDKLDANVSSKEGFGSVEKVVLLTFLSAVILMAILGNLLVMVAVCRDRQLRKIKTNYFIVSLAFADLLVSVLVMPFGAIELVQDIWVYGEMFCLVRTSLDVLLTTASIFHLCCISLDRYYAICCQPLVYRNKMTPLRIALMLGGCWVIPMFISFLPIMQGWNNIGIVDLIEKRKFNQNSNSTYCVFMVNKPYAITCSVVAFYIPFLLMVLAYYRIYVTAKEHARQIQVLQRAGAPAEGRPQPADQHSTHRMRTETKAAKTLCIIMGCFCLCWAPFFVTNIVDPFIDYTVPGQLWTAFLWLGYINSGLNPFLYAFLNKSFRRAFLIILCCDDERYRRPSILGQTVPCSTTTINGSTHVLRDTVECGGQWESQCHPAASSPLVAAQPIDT
T1 sequence (O70528 whole entry): as above

SMILES: COc1cc(N)c(Cl)cc1C(=O)NCC1CCN(CCCS(=O)(=O)Cc2ccccc2)CC1 [Y-36912, 4-amino-5-chloro-2-methoxy-N-((1-(3-benzylsulfonylpropyl)piperidin-4-yl)methyl)benzamide]
- EC50 ([1]; longitudinal muscle, methysergide 1 µM and granisetron 1 µM present, relative to methacholine 30 µM contraction, read-out: Contraction effect on the isolated ascending colon (EC50 value)): 10.8 nM
- Ki (5-HT4 receptor): 1.5 nM
- Difference of motility index (g·min) Colon (dogs; 0.01 mg/kg i.v.): 27.1 ± 6.8 g·min
- Difference of motility index (g·min) Stomach (dogs; 0.01 mg/kg i.v.): 41.3 ± 35.4 g·min
- Difference of motility index (g·min) Colon (dogs; 0.03 mg/kg i.v.): 28.3 ± 8.5 g·min
- Difference of motility index (g·min) Stomach (dogs; 0.03 mg/kg i.v.): 65.1 ± 38.1 g·min
- Difference of motility index (g·min) Colon (dogs; 0.1 mg/kg i.v.): 58.2 ± 11.9 g·min
- Difference of motility index (g·min) Stomach (dogs; 0.1 mg/kg i.v.): 60.5 ± 18.1 g·min
- minimal effective dose (dogs; read-out: dose that increased colonic (lower gastrointestinal) motility): 0.1 mg/kg
- minimal effective dose (dogs; read-out: dose that increased gastric (upper gastrointestinal) motility): ≥ 0.03 mg/kg
- IC50 (5-HT3 receptor): > 1000 nM
- Number of pellets (remaining in stomach) (rats; 0.1 mg/kg p.o.): 21.1 ± 2.8
- Promotion (%) of gastric emptying (rats; 0.1 mg/kg p.o., rats): 25%
- Number of pellets (remaining in stomach) (rats; 0.3 mg/kg p.o.): 18.8 ± 3.0
- Promotion (%) of gastric emptying (rats; 0.3 mg/kg p.o., rats): 33%
- Number of pellets (remaining in stomach) (rats; 1 mg/kg p.o.): 19.5 ± 3.1
- Promotion (%) of gastric emptying (rats; 1 mg/kg p.o., rats): 31%
- Number of pellets (remaining in stomach) (rats; 3 mg/kg p.o.): 13.4 ± 1.8
- Promotion (%) of gastric emptying (rats; 3 mg/kg p.o., rats): 52%
- effect on gastric emptying (rats; doses of 0.3 mg/kg and 3 mg/kg p.o., rats): significantly accelerated gastric emptying
- Number (of feces) (mice; 0.03 mg/kg s.c): 5.4 ± 0.7
- Wet weight (of feces) (mice; 0.03 mg/kg s.c): 78.2 ± 8.6
- Promotion(%) of number of feces (mice; 0.03 mg/kg s.c): 59%
- Promotion(%) of wet weight of feces (mice; 0.03 mg/kg s.c): 38%
- Number (of feces) (mice; 0.1 mg/kg s.c): 6.5 ± 0.8
- Wet weight (of feces) (mice; 0.1 mg/kg s.c): 95.7 ± 10.6
- Promotion(%) of number of feces (mice; 0.1 mg/kg s.c): 91%
- Promotion(%) of wet weight of feces (mice; 0.1 mg/kg s.c): 69%
- Number (of feces) (mice; 0.3 mg/kg s.c): 6.2 ± 0.8
- Wet weight (of feces) (mice; 0.3 mg/kg s.c): 94.7 ± 10.3
- Promotion(%) of number of feces (mice; 0.3 mg/kg s.c): 82%
- Promotion(%) of wet weight of feces (mice; 0.3 mg/kg s.c): 68%
- Number (of feces) (mice; 1 mg/kg s.c): 5.4 ± 0.5
- Wet weight (of feces) (mice; 1 mg/kg s.c): 97.7 ± 12.5
- Promotion(%) of number of feces (mice; 1 mg/kg s.c): 59%
- Promotion(%) of wet weight of feces (mice; 1 mg/kg s.c): 73%
- minimal effective dose (mice; Mus musculus, sc, 2 h, s.c., read-out: dose showing significant promotion of defecation): ≥ 0.1 mg/kg
- bioavailability [2]: 85.2%
- death (SD rats [3]): no death
- Fa at 2 h [4]: 60.5 ± 13.7%
- death (SD rats [5]): no animal died
- Ratio of transit in large intestine (%) (guinea pig; 0.1 mg/kg p.o.): 57.0 ± 7.0%
- Promotion (%) of transit in large intestine (guinea pig; 0.1 mg/kg p.o.): 9%
- Ratio of transit in large intestine (%) (guinea pig; 0.3 mg/kg p.o.): 70.9 ± 7.9%
- Promotion (%) of transit in large intestine (guinea pig; 0.3 mg/kg p.o.): 35%
- Ratio of transit in large intestine (%) (guinea pig; 1 mg/kg p.o.): 77.2 ± 6.4 %
- Promotion (%) of transit in large intestine (guinea pig; 1 mg/kg p.o.): 47%
- Ratio of transit in large intestine (%) (guinea pig; 3 mg/kg p.o.): 80.1 ± 5.8 %
- Promotion (%) of transit in large intestine (guinea pig; 3 mg/kg p.o.): 53%
- minimal effective dose (guinea pig; Cavia porcellus, po, 1 h, p.o., read-out: dose that significantly accelerated transit in large intestine): ≥ 1 mg/kg

SMILES: Cn1cc(C(=O)OCC2CCN(CCNS(C)(=O)=O)CC2)c2ccccc21 [GR113808, 1-methyl-1H-indole-3-carboxylic acid · 1-(2-methylsulfonylaminoethyl)-pyperidin-4-ylmethyl ester, reference compound]
- pKB, antagonism of GR113808 to contraction of Y-36912 ([1]; GR113808 10 nM, 10 minutes pretreatment, agonist Y-36912): 8.8
